Measurements from patent US20110020460A1, “GPR 119 MODULATORS” (Pfizer Inc., priority 2009, published 2011).
Values joined by “and” are separate entries in the source; they are usually repeats but may differ in a detail not shown here. Identical values can stand only once. Like-named read-outs stand apart in the source and are kept apart here.

Tests used:
human GPR119 [1] = target: T1, human GPR119 (Homo sapiens, UniProt Q8TDV5); assay: beta-lactamase reporter functional assay (hGPR119 HEK293-CRE beta-lactamase cells); format: cell-based; settings: for EC50: read-out: Human B-lactamase Functional EC50; for Emax: read-out: Intrinsic Activity* (B-lactamase)
T1 construct: host or cells: HEK293-CRE-beta-lactamase
T1 sequence (Q8TDV5 1-335): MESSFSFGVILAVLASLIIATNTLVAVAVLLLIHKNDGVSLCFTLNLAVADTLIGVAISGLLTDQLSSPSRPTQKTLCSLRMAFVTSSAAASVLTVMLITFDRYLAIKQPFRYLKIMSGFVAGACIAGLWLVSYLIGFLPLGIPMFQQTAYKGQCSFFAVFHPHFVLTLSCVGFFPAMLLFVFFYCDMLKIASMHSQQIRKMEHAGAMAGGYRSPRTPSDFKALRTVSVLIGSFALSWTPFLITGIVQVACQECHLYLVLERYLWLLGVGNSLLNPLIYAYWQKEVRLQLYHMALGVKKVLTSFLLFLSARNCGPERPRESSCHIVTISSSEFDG
Procedure: The assay for GPR119 agonists utilizes a cell-based (hGPR119 HEK293-CRE beta-lactamase) reporter construct where agonist activation of human GPR119 is coupled to beta-lactamase production via a cyclic AMP response element (CRE). GPR119 activity is then measured utilizing a FRET-enabled beta-lactamase substrate, CCF4-AM (Live Blazer FRET-B/G Loading kit, Invitrogen cat #K1027). […] After 4 hours the plating medium was removed and replaced with 40 microL of assay medium (Assay medium is plating medium without potassium clavulanate and HIFBS). Varying concentrations of each compound to be tested was then added in a volume of 10 microL (final DMSO≦0.5%) and the cells were incubated for 16 hours at 37 degrees Celsius in a humidified environment containing 5% carbon dioxide. Plates were removed from the incubator and allowed to equilibrate to room temperature for approximately 15 minutes. 10 microL of 6×CCF4/AM working dye solution (prepared according to instructions in the Live Blazer FRET-B/G Loading kit, Invitrogen cat #K1027) was added per well and incubated at room temperature for 2 hours in the dark. Fluorescence was measured on an EnVision fluorimetric plate reader, excitation 405 nm, emission 460 nm/535 nm. EC50 determinations were made from agonist-response curves analyzed with a curve fitting program using a 4-parameter logistic dose-response equation.

human GPR119 [2] = target: T1, human GPR119; assay: cAMP HTRF functional assay (hGPR119 HEK-CRE beta-lactamase cells); format: cell-based; settings: one value per run; for EC50: hGPR119 HEK-CRE beta-lactamase cells, HTRF cAMP; for Intrinsic Activity* (cAMP) / Emax: percent of maximal activity relative to standard GPR119 agonist (WO2005121121) at 10 μM; for Emax: read-out: Intrinsic Activity* (cAMP)
Procedure: GPR119 agonist activity was also determined with a cell-based assay utilizing an HTRF (Homogeneous Time-Resolved Fluorescence) cAMP detection kit (cAMP dynamic 2 Assay Kit; Cis Bio cat #62AM4PEC) that measures cAMP levels in the cell. The method is a competitive immunoassay between native cAMP produced by the cells and the cAMP labeled with the dye d2. The tracer binding is visualized by a Mab anti-cAMP labeled with Cryptate. The specific signal (i.e. energy transfer) is inversely proportional to the concentration of cAMP in either standard or sample.
Following 30 minutes incubation at room temperature, 5 microL of labeled d2 cAMP and 5 microL of anti-cAMP antibody (both diluted 1:20 in cell lysis buffer; as described in the manufacturers assay protocol) were added to each well of the assay plate. […] Raw data were converted to nM cAMP by interpolation from a cAMP standard curve (as described in the manufacturer's assay protocol) and EC50 determinations were made from an agonist-response curves analyzed with a curve fitting program using a 4-parameter logistic dose response equation.

human GPR119 [3] = target: T1, human GPR119; assay: GPR119 radioligand binding assay ([3H]-Compound A or [3H]-Compound B, HEK 293FT membranes); settings: Ki from IC50 by Cheng-Prusoff, one value per run
Procedure: Cells were harvested via centrifugation (3,000×g, 10 minutes), washed once on DPBS (minus Ca++/Mg++), resuspended in 0.25M sucrose, 25 mM HEPES, 0.5 mM EDTA, pH 7.4 and frozen at −80 degrees Celsius.
The frozen cells were thawed on ice and centrifuged at 700×g (1400 rpm) for 10 minutes at 4 degrees Celsius. The cell pellet was resuspended in 20 mL phosphate-buffered saline, and centrifuged at 1400 rpm for 10 minutes. […] Cells were then lysed with 15 gentle strokes of a tight-fitting glass Dounce homogenizer. The homogenate was centrifuged at 1000×g (2200 rpm) for 10 minutes at 4 degrees Celsius. The supernatant was transferred into fresh centrifuge tubes on ice. The cell pellet was resuspended in homogenization buffer, and centrifuged again at 1000×g (2200 rpm) for 10 minutes at 4 degrees Celsius after which the supernatant was removed and the pellet resuspended in homogenization buffer. […] The solution was then centrifuged at 25,000×g (15000 rpm) for 20 minutes at 4 degrees Celsius, the supernatant was discarded, and the pellet was resuspended in fresh homogenization buffer (minus Benzonase and MgCl2). After repeating the 25,000×g centrifugation step, the final membrane pellet was resuspended in homogenization buffer and frozen at −80 degrees Celsius.
2 microL of each dilution was added to appropriate wells of a 96-well plate (each concentration in triplicate).
Membranes expressing GPR119 were thawed and diluted to a final concentration of 20 μg/100 microL per well in Binding Buffer, and 100 microL of diluted membranes were added to each well of 96-well plate.
The plate was incubated for 60 minutes w/shaking at room temperature (approximately 25 degrees Celsius). […] Filters were then washed six times using washing buffer (50 mM Tris-HCl, pH 7.5 kept at 4 degrees Celsius). The filter plates were then air-dyed at room temperature overnight.
IC50 determinations were made from competition curves, analyzed with a proprietary curve fitting program (SIGHTS) and a 4-parameter logistic dose response equation. Ki values were calculated from IC50 values, using the Cheng-Prusoff equation.

[4] = hGPR119 HEK293-CRE beta-lactamase cells, one value per run
[5] = percent of maximal activity relative to standard GPR119 agonist (WO2005121121) at 10 microM, one value per run
[6] = **curve was extrapolated to 100% to calculate an EC50

Structure (SMILES)	EC50 (human GPR119 [1]; [4])	Emax (human GPR119 [1]; [5])	EC50 (human GPR119 [2])	Intrinsic Activity* (cAMP) (human GPR119 [2])	Emax (human GPR119 [2])	Ki (human GPR119 [3]; read-out: Human Binding Ki)	Intrinsic Activity* (B-lactamase) (human GPR119 [1]; [5])	Ki (human GPR119 [3]; Human Binding Ki)	EC50 (human GPR119 [1]; [6])	Emax (human GPR119 [1]; [6])	Intrinsic Activity* (B-lactamase) (human GPR119 [1]; percent of maximal activity relative to standard GPR119 agonist (WO2005121121) at 10 microM, one value per run, listed as Exmaple 28)
CC(C)OC(=O)N1CCC(n2ncc(COc3c(F)ccc(F)c3F)c2C#N)CC1 [Example 32, Isopropyl 4-{5-cyano-4-[(2,3,6-trifluorophenoxy)methyl]-1H-pyrazol-1-yl}piperidine-1-carboxylate]	281 nM	86%	66 nM and 64 nM and 58 nM	78% and 60%	66%	514 nM	–	–	–	–	–
CC(C)OC(=O)N1CCC(n2ncc(CNc3ccc(S(C)(=O)=O)cc3F)c2C#N)CC1 [Example 10, Isopropyl 4-[5-cyano-4-({[2-fluoro-4-(methylsulfonyl)phenyl]amino}methyl)-1H-pyrazol-1-yl]piperidine-1-carboxylate]	34 nM and 38 nM	100%	87 nM and 98 nM	57%	62%	28 nM and 30 nM	94%	–	–	–	–
CC(C)OC(=O)N1CCC(n2ncc(C(C)Oc3ccc(S(C)(=O)=O)cc3F)c2C#N)CC1 (centres unmarked) [Example 27, Isopropyl 4-(5-cyano-4-{1-[2-fluoro-4-(methylsulfonyl)phenoxy]ethyl}-1H-pyrazol-1-yl)piperidine-1-carboxylate]	1870 nM and 3400 nM	102%	394 nM	–	27%	1640 nM and 528 nM	100%	–	–	–	–
COP(=O)(OC)c1ccc(OCc2cnn(C3CCN(C(=O)OC(C)C)CC3)c2C#N)c(F)c1 [Example 7, Isopropyl 4-(5-cyano-4-{[4-(dimethoxyphosphoryl)-2-fluorophenoxy]methyl}-1H-pyrazol-1-yl)piperidine-1-carboxylate]	622 nM	98%	225 nM and 256 nM and 169 nM	74% and 85%	80%	–	–	293 nM and 283 nM	–	–	–
Cc1nc(S(C)(=O)=O)ccc1NCc1cnn(C2CCN(C(=O)OC(C)C)CC2)c1C#N [Example 37, Isopropyl 4-[5-cyano-4-({[2-methyl-6-(methylsulfonyl)pyridin-3-yl]amino}methyl)-1H-pyrazol-1-yl]piperidine-1-carboxylate]	328 nM and 805 nM	114%	1160 nM	–	56%	416 nM	105%	–	–	–	–
Cc1ncccc1NCc1cnn(C2CCN(C(=O)OC(C)C)CC2)c1C#N [Example 6, Isopropyl 4-(5-cyano-4-{[(2-methylpyridin-3-yl)amino]methyl}-1H-pyrazol-1-yl)piperidine-1-carboxylate]	6 nM	31%	> 10000 nM	–	17%	> 6100 nM	–	–	–	–	–
CC(C)OC(=O)N1CCC(n2ncc(CC(C)c3ccc(S(C)(=O)=O)cc3F)c2C#N)CC1 (centres unmarked) [Example 29, Isopropyl 4-(5-cyano-4-{2-[2-fluoro-4-(methylsulfonyl)phenyl]propyl}-1H-pyrazol-1-yl)piperidine-1-carboxylate]	–	–	–	33%	27%	1550 nM and 3380 nM	–	–	3010 nM	100%	–
CC(C)OC(=O)N1CCC(n2ncc(COc3ccc(S(=O)(=O)CCO)cc3F)c2C#N)CC1 [Example 1, Isopropyl 4-[5-cyano-4-({2-fluoro-4-[(2-hydroxyethyl)sulfonyl]-phenoxy}methyl)-1H-pyrazol-1-yl]piperidine-1-carboxylate]	68 nM and 122 nM	100%	217 nM and 180 nM	37%	56%	47 nM and 45 nM	101%	–	–	–	–
CC(C)OC(=O)N1CCC(n2ncc(COc3ccc(S(C)(=O)=O)cc3F)c2C#N)CC1 [Example 2, Isopropyl 4-(5-cyano-4-{[2-fluoro-4-(methylsulfonyl)phenoxy]methyl}-1H-pyrazol-1-yl)piperidine-1-carboxylate]	9 nM and 17 nM	100%	29 nM and 27 nM	63%	60%	10 nM and 19 nM and 13 nM and 40 nM	93% and 84%	–	–	–	–
Cc1ncccc1OC(C)c1cnn(C2CCN(C(=O)OC(C)C)CC2)c1C#N (centres unmarked) [Example 28, Isopropyl 4-(5-cyano-4-{1-[(2-methylpyridin-3-yl)oxy]ethyl}-1H-pyrazol-1-yl)piperidine-1-carboxylate]	5 nM and 3 nM	27%	> 10000 nM	–	–	> 6100 nM	–	–	–	–	22%
Cc1nc(-n2cncn2)ccc1NCc1cnn(C2CCN(C(=O)OC(C)C)CC2)c1C#N [Example 36, Isopropyl 4-[5-cyano-4-({[2-methyl-6-(1H-1,2,4-triazol-1-yl)pyridin-3-yl]amino}methyl)-1H-pyrazol-1-yl]piperidine-1-carboxylate]	848 nM	100%	281 nM and 256 nM	51% and 76%	–	521 nM and 1450 nM	–	–	–	–	–
CC(C)OC(=O)N1CCC(n2ncc(COc3ccc(-c4cncn4C)cc3F)c2C#N)CC1 [Example 34, Isopropyl 4-(5-cyano-4-{[2-fluoro-4-(1-methyl-1H-imidazol-5-yl)phenoxy]methyl}-1H-pyrazol-1-yl)piperidine-1-carboxylate]	270 nM	102%	55 nM and 70 nM	78%	94%	87 nM	–	–	–	–	–
